Test results from US20120003270A1, “6-SUBSTITUTED ISOFLAVONOID COMPOUNDS AND USES THEREOF” (priority 2008, published 2012).

Tests used:
[1] = test system: AA-induced ear swelling; assay: Murine ear inflammation assay, arachidonic acid (AA); assay type: in vivo, mouse; details: 25 mg/kg i/p; for Change in ear thickness (mean ± SD, ×0.01 mm): 1 hr post-AA
Description: Groups of 5-6 female BALB/c mice (ARC, WA, Australia), weighing 15-21 g were injected intraperitoneally (i/p) with selected compounds of the formula (I) at 25 mg/kg delivered in polyethylene glycol (PEG) 400: phosphate buffered saline (PBS) 1:1 or ethanol: propanediol:PBS 4:9:7 either 30 min prior to or immediately before the inflammogen was applied to the ears. Mice were anaesthetised using isoflurane and baseline thickness of both ears was measured using a spring micrometer. Each mouse received a total of […] of either AA in ethanol (50 mg/ml or 200 mg/ml) or PMA in either ethanol or acetone (0.2 mg/ml) applied to the inner and outer surfaces of each pinna (i.e. 0.5 mg or 2 mg AA or 2 μg PMA per ear). Mice were anaesthetised again to re-measure the ears at 1 hr post-AA application and 5 hr after PMA. The difference in ear swelling pre- and post-application of inflammogen for each ear was calculated, and the average for the two ears of each mouse taken. The difference in mean swelling of each test group compared to the group given vehicle alone was calculated using a general ANOVA using Dunnett's Multiple Comparison test when multiple compounds were tested in the one experiment or a two-tailed unpaired t-test when only one compound was tested (Prism 4, Graphpad Software).

[2] = test system: neonatal fibroblast foreskin (NFF); assay: Toxicity in normal cells (MTT), NFF; assay type: cell-based; details: Homo sapiens, 120 h, 5 days, top concentration 150 μM, read-out: Normal cell viability IC50
Description: Human neonatal fibroblast foreskin (NFF—a gift from Dr. Peter Parsons, Queensland Institute of Medical Research) or rabbit kidney (RK-13—a gift from Prof. Miller Whalley, Macquarie University) cells were seeded into 96 well plates and cultured in RPMI supplemented with 10% FCS (CSL, Australia), penicillin (100 U/ml), streptomycin ([…]), L-glutamine (2 mM) and sodium bicarbonate (1.2 g/L) at 37° C. and 5% CO2 for 24 hours until cells had attached and entered log phase of growth. Test compounds were added in serial two-fold dilutions from 150 μM in triplicate and incubated for a further 5 days. MTT was then added to each well, incubated for 3 hours at 37° C., after which the medium was tipped off. Following the addition of DMSO, the absorbance for each well was read on a plate reader. The assays were repeated at least twice.

[3] = test system: PGE2; assay: PGE2 synthesis in RAW 264.7 (ELISA); assay type: cell-based, mouse; details: LPS 50 ng/ml, 16 hrs
Description: The mouse macrophage cell line RAW 264.7 was cultured in DMEM supplemented with foetal calf serum (FCS), 2 mM glutamine and 50 U/ml penicillin/streptomycin. Cells were treated with either test compounds (in 0.025% DMSO) or vehicle alone, and added one hour before 50 ng/ml LPS. After incubation for 16 hrs, culture media was collected for PGE2 or TXB2 measurement by ELISA (Cayman Chemical), and TNFα measurement using an ELISA (Becton Dickinson).

[4] = test system: HCAECs; assay: HCAEC cell viability; assay type: cell-based, human; details: 10 μM, 24 hr incubation
[5] = test system: TXA2; assay: TXA2 synthesis in RA-stimulated U937 cells; assay type: cell-based, human; details: A23187 0.5 μM, 30 min
Description: U937 cells were thawed and resuspended in RPMI and 10% FCS at 2×10^5 cells per ml. The cells were incubated in 5% CO2 at 37° C. and expanded in growing culture to at least 6.4×10^7 total cells. The cells were then resuspended in fresh medium and cultured with 5 μM retinoic acid (RA) at 2×10^5 cells per ml for a further 3 days (72 h). RA treated cells were washed 2× in serum-free RPMI and resuspended in serum-free medium at 5×10^6 cells per ml. The cells were aliquotted into Teflon tubes at 1 ml per tube. Working stock solutions of compounds (1) and (3) were prepared at 0.1 mM, 1 mM and 10 mM as described above. For each working dilution, 10 μl was added to 1 ml cells to achieve a final concentration of 0 (DMSO alone), 1, 10, and 100 μM for each test compound. Cells were incubated in triplicate with each concentration of test compound for 15 min at 37° C. After 15 min pre-incubation, each 1 ml tube of cells received 5 μl of a […] solution of the calcium ionophore A23187 (to achieve 0.5 μM A23187). Incubation at 37° C. was continued for a further 30 min. After incubation, supernatants were collected by centrifugation at 2000 rpm for 10 min and stored at −20° C. until required for assay.

[6] = test system: NFκB; assay: NFκB promoter activity in transfected THP-1 cells (beta-lactamase reporter); assay type: cell-based, human; details: for Inflammatory index: TNFα 7.5 ng/ml, 5 h
Description: The assay utilizes a genetically modified THP-1 cell line and GeneBLAzer® beta-lactamase technology (Invitrogen Corp). The human THP-1 monocyte/macrophages contain a stably-transfected beta-lactamase reporter gene under control of the NFkB response element. They respond to stimulation with TNFα, which leads to activation of the NFkB signaling pathway. Co-incubation of cells with TNFα and test material allows quantitative determination of the ability of test material to inhibit TNFα-stimulated beta-lactamase production. An inflammatory index was calculated as the ratio of beta-lactamase product to beta-lactamase substrate.
In brief, genetically modified THP-1 cells were seeded into wells of a 96-well plate (50×10^3 cells/well) in the presence of RPMI 1640 medium (70 μl). TNFα was added to each well (10 μl) to give a final concentration of 7.5 ng/ml. Dialyzed bovine serum was added (10 μl). Test compounds were dissolved in DMSO (10 μL) (5 wells). Each plate contained a no-cell control (4 wells), a no-serum control (4 wells) and two serum controls. Plates were incubated for 5 h at 37° C. to allow for NFkB-stimulated beta-lactamase production. LiveBLAzer™ FRET B/G Substrate (CCF4-AM) substrate was then added to the assay. CCF4-AM is a Förster resonance energy transfer (FRET) based substrate for beta-lactamase developed by Invitrogen Corp. Once CCFA-AM enters a cell, it is converted to negatively charged CCF4 by endogenous esterases. Excitation of this substrate at 409 nm leads to efficient FRET between the coumarin and fluorescein moieties, resulting in a green fluorescence detectable at 530 nm. The presence of beta-lactamase leads to cleavage of CCF4 and results in a loss of FRET, resulting in a robust blue fluorescent signal detectable at 460 nm. Thus, activity of beta-lactamase (a marker of NFkB-promoter activity) is measured as a product to substrate ratio (blue/green fluorescence ratio: 460 nm/530 nm).

SMILES	% Change compared with vehicle [1] [%]	Change in ear thickness (mean ± SD, ×0.01 mm) [1] [×0.01 mm]	IC50 [2] [µM]	PGE2 ([3]; 1 μM) [pg/mL]	PGE2 ([3]; 10 μM) [pg/mL]	Cell viability [4]	TXB2 ([5]; 1 μM) [pg]	TXB2 ([5]; 10 μM) [pg]	TXB2 ([5]; 100 μM) [pg]	Inflammatory index ([6]; 10 μM, vehicle 8.92 ± 0.22)	Inflammatory index ([6]; 30 μM, vehicle 11.56 ± 0.49)	Inflammatory index ([6]; 100 μM, vehicle 9.48 ± 0.14)	Effect on promoter activity of NFκB (in words) ([6]; THP-1 cells, TNFα-stimulated)
O=C(O)C1CCCN1Cc1cc2c(cc1O)OCC(c1ccc(O)cc1)=C2 (stereo not shown) [Compound (3)]	−5.9	22.2 ± 1.9	111 ± 67.1	2890.02 ± 320.91	2031.43 ± 261.59	cell viability was unaffected	18.434 ± 0.367	26.276 ± 9.76	12.668 ± 3.506	8.88 ± 0.05	11.45 ± 0.86	8.59 ± 0.24	
CN(C)Cc1cc2c(cc1O)OCC(c1ccc(O)cc1)=C2 [Compound (1)]	−7.0	24.1 ± 0.1	64.1 ± 9.6	2601.37 ± 153.53	847.96 ± 144.83	cell viability was unaffected	35.833 ± 1.866	41.697 ± 2.275	21.708 ± 5.439	9.12 ± 0.26	10.05 ± 0.36	2.75 ± 0.11	significantly reduced the promoter activity of NFκB at 10 μM and 100 μM
